Columns and labels:
Format in all cases: physicochemical
[1] = Rate of color fading at 35° C. of mixed acidified chlorite product, UV/Vis spectroscopy at 425 nm; conditions: for Initial Color Intensity Remaining, Time After Mixing 1 hour: 1 hour after mixing; for Initial Color Intensity Remaining, Time After Mixing 2 hour: 2 hour after mixing; for Initial Color Intensity Remaining, Time After Mixing 3 hour: 3 hour after mixing; for Initial Color Intensity Remaining, Time After Mixing 4 hour: 4 hour after mixing
Description: (§1) The rate of color fading at 35° C. was quantified by UV/Vis spectroscopy at 425 nm.
as §1

[2] = Rate of chlorine dioxide generation in mixed acidified chlorite product, UV/Vis spectroscopy at 360 nm; conditions: olefin 0.0225M in mixed product, 1.32% lactic acid, 0.32% sodium chlorite, pH 2.75; for Chlorine Dioxide, Time After Mixing 1 hour: 1 hour after mixing; for Chlorine Dioxide, Time After Mixing 2 hour: 2 hour after mixing; for Chlorine Dioxide, Time After Mixing 3 hour: 3 hour after mixing; for Chlorine Dioxide, Time After Mixing 4 hour: 4 hour after mixing; for Chlorine Dioxide, Time After Mixing 5 hour: 5 hour after mixing
Description: A series of two-part acidified chlorite products were prepared that when combined 1:1 produced compositions containing 1.32% lactic acid, 0.32% sodium chlorite, an olefin compound formulated at a 0.0225M, and sufficient quantities of sodium hydroxide to produce a mixed product pH of 2.75. The rate of chlorine dioxide generation was determined by UV/Vis spectroscopy at 360 nm (54.31 ppm/A.U. cm).

[3] = Rate of sodium chlorite consumption, standard iodometric titration; conditions: olefin compound at 1.4%
Description: The rate of sodium chlorite consumption was quantified using a standard iodometric titration method.

[4] = olefin 0.045M in acid part (0.0225M mixed), FD&C Yellow #5, pH 2.75
[5] = component at 0.4%, mixed product pH 2.75

Compound | Initial Color Intensity Remaining, Time After Mixing 1 hour [1, 4] | Initial Color Intensity Remaining, Time After Mixing 2 hour [1, 4] | Initial Color Intensity Remaining, Time After Mixing 3 hour [1, 4] | Initial Color Intensity Remaining, Time After Mixing 4 hour [1, 4] | Initial Color Intensity Remaining, Time After Mixing ½ hour [1, 4] | Chlorine Dioxide, Time After Mixing 1 hour [2] | Chlorine Dioxide, Time After Mixing 2 hour [2] | Chlorine Dioxide, Time After Mixing 3 hour [2] | Chlorine Dioxide, Time After Mixing 4 hour [2] | Chlorine Dioxide, Time After Mixing 5 hour [2] | also measured
CCCCCCCC/C=C\CCCCCCCC(=O)NCCOC(=O)C(CC(=O)[O-])S(=O)(=O)[O-].[Na+].[Na+] (centres unmarked) [Disodium oleamido MEA sulfosuccinate] | ** (>50% of Initial Color Intensity Remaining) | ** (>50% of Initial Color Intensity Remaining) | ** (>50% of Initial Color Intensity Remaining) | ** (>50% of Initial Color Intensity Remaining) | ** (>50% of Initial Color Intensity Remaining) | – | – | – | – | – | –
CCCCCCCC/C=C\CCCCCCCC(=O)N(C)CCS(=O)(=O)[O-].[Na+] [Sodium N-methyl oleoyl taurate, sodium N-methyl oleoyl taurate] | ** (>50% of Initial Color Intensity Remaining) | ** (>50% of Initial Color Intensity Remaining) | ** (>50% of Initial Color Intensity Remaining) | ** (>50% of Initial Color Intensity Remaining) | ** (>50% of Initial Color Intensity Remaining) | 4 ppm | 5 ppm | 5 ppm | 6 ppm | 7 ppm | Initial NaClO2 Level remaining, Time After Mixing 1 hour ([3]; 1 hour after mixing, pH 2.75 when mixed 1:1): ** (>50% Initial NaClO2 Level); Initial NaClO2 Level remaining, Time After Mixing 2 hour ([3]; 2 hour after mixing, pH 2.75 when mixed 1:1): ** (>50% Initial NaClO2 Level); Initial NaClO2 Level remaining, Time After Mixing 3 hour ([3]; 3 hour after mixing, pH 2.75 when mixed 1:1): ** (>50% Initial NaClO2 Level); Initial NaClO2 Level remaining, Time After Mixing 4 hour ([3]; 4 hour after mixing, pH 2.75 when mixed 1:1): ** (>50% Initial NaClO2 Level); Initial NaClO2 Level remaining, Time After Mixing 5 hour ([3]; 5 hour after mixing, pH 2.75 when mixed 1:1): ** (>50% Initial NaClO2 Level); Rate of sodium chlorite consumption ([3]; equal weight-base comparison, in words): stronger effect than alpha olefin sulfonate; Initial Color Intensity Remaining, Time After Mixing 1 hour [1, 5]: ** (>50% of Initial Color Intensity Remaining); Initial Color Intensity Remaining, Time After Mixing 2 hour [1, 5]: ** (>50% of Initial Color Intensity Remaining); Initial Color Intensity Remaining, Time After Mixing 3 hour [1, 5]: ** (>50% of Initial Color Intensity Remaining); Extension of colorant intensity ([1]; component at 0.4%, in words): extended the colorant intensity longer; Initial Color Intensity Remaining, Time After Mixing ½ hour [1, 5]: ** (>50% of Initial Color Intensity Remaining)
Oleth-10 | ** (>50% of Initial Color Intensity Remaining) | ** (>50% of Initial Color Intensity Remaining) | ** (>50% of Initial Color Intensity Remaining) | ** (>50% of Initial Color Intensity Remaining) | ** (>50% of Initial Color Intensity Remaining) | 10 ppm | 16 ppm | 21 ppm | 25 ppm | 28 ppm | –
Oleth-10 phosphate | ** (>50% of Initial Color Intensity Remaining) | ** (>50% of Initial Color Intensity Remaining) | ** (>50% of Initial Color Intensity Remaining) | ** (>50% of Initial Color Intensity Remaining) | ** (>50% of Initial Color Intensity Remaining) | 7 ppm | 14 ppm | 17 ppm | 21 ppm | 25 ppm | –
CCCCCCCC/C=C\CCCCCCCC[N+](C)(CCO)CCO.[Cl-] [oleylmethylbis(hydroxyethyl)ammonium chloride] | ** (>50% of Initial Color Intensity Remaining) | ** (>50% of Initial Color Intensity Remaining) | ** (>50% of Initial Color Intensity Remaining) | ** (>50% of Initial Color Intensity Remaining) | ** (>50% of Initial Color Intensity Remaining) | – | – | – | – | – | –
CCCCCCCC/C=C\CCCCCCCC(=O)NCCC[N+](C)(C)CC(=O)[O-] [Oleamidopropyl betaine] | ** (>50% of Initial Color Intensity Remaining) | ** (>50% of Initial Color Intensity Remaining) | ** (>50% of Initial Color Intensity Remaining) | ** (>50% of Initial Color Intensity Remaining) | ** (>50% of Initial Color Intensity Remaining) | – | – | – | – | – | –

Reference: patent US8021694B2, “Acidified chlorite disinfectant compositions with olefin stabilizers” (Ecolab USA Inc., priority 2001, dated 2011)
